According to PubChem BioAssay AID624167 (Sanford-Burnham Center for Chemical Genomics, 2012):
Calls of active or inactive are those of the source.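 The calls were made as follows: active = mean IC50 for reducing PEG3 promoter reporter signal at or below a set limit, with IC50 above the limit in both counter screens; inactive = the rest, including counter screen hits.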

Legend:
Test in all cases: inhibition of PEG-3 promoter-driven reporter – cell-based, HeLa, luciferase, CREF/GAPDH counter-screen panel, dose response (AID 624167)
PEG-3 [1] = molecular target: PEG-3 (UniProt Q6IN02); details: HeLa PEG-Prom luciferase reporter, overnight, CREF/GAPDH counter-screens, mean of runs
PEG-3 [2] = details: HeLa PEG-Prom luciferase reporter, overnight, CREF/GAPDH counter-screens
Rat fibroblasts (CREF) = details: CREF/GAPDH counter-screens
[3] = run 1, dose range 1, individual replicate IC50 per panel
[4] = run 2, dose range 1, individual replicate IC50 per panel

Chain of PEG-3 (UniProt Q6IN02) (Q6IN02 whole entry, looked up): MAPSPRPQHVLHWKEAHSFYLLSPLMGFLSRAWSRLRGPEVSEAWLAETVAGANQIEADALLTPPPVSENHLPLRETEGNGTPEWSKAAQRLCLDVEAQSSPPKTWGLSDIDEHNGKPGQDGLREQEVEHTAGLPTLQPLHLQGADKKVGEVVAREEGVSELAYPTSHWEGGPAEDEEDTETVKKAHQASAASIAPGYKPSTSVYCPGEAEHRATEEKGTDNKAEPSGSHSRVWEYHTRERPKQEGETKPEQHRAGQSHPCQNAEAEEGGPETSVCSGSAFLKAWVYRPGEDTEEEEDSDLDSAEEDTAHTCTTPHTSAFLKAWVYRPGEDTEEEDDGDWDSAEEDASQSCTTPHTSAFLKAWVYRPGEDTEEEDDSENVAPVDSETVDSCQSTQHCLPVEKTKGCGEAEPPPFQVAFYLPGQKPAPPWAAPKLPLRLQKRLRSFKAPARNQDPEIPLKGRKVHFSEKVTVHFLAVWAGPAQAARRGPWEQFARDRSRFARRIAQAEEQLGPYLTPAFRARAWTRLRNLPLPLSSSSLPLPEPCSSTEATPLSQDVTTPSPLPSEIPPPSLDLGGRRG

SMILES | IC50 (PEG-3 [1]) | IC50 (PEG-3 [2]; [3]) [µM] | IC50 (PEG-3 [2]; [4]) [µM] | IC50 (Rat fibroblasts (CREF); mean of runs) | IC50 (Rat fibroblasts (CREF); [3]) [µM] | IC50 (Rat fibroblasts (CREF); [4]) [µM]
Cc1nc(-c2ccc(NC(=O)c3ccco3)cc2)cs1 | 1.54 µM | 1.39 | 1.69 | 0.433 µM | 0.43 | 0.436
COc1cc(SC)ccc1C(=O)Nc1nc2ccccc2[nH]1 | inactive | 0.377 | > 100 | 0.296 µM | 0.305 | 0.288
Oc1c(Br)cc(Br)c2cccnc12 | 6.72 µM | 4.4 | 9.05 | 9.01 µM | 11.8 | 6.27
O=c1cc(-c2ccc(O)cc2)oc2ccc3ccccc3c12 | 4.08 µM | 4.65 | 3.52 | 1.23 µM | 0.883 | 1.57
COCCn1c(C)cc(C(=O)CSc2nnc(C)s2)c1C | 9.4 µM | 5.44 | 13.4 | 8.78 µM | 6.79 | 10.8
CCC1(OC(=O)CN)C(=O)OCc2c1cc1n(c2=O)Cc2cc3ccccc3nc2-1 (configuration not stated) | 3.34 µM | 3.8 | 2.88 | 1.38 µM | 1.07 | 1.69
O=C(NCCc1ccccc1F)c1ccc2c(c1)OCCO2 | 0.881 µM | 1.02 | 0.74 | 1.18 µM | 1.07 | 1.3
Cc1cc(C2=NNC(=NC3CC3)SC2)c(C)n1-c1ccccc1F | < 0.2 µM | < 0.2 | < 0.2 | 3.3 µM | 2.72 | 3.89
O=C(OCC(F)(F)F)c1cccc(COc2ccc3ccccc3c2)c1 | 1.27 µM | 1.14 | 1.4 | 16.1 µM | 14.9 | 17.3
Cc1c([N+](=O)[O-])cc(N2C(=O)C=CC2=O)cc1[N+](=O)[O-] | 8.22 µM | 9.19 | 7.25 | 17.2 µM | 16.8 | 17.6
Cc1ccc2nc(C)cc(Nc3ccc([N+](=O)[O-])cc3)c2c1 | 8 µM | 10.6 | 5.38 | 8.48 µM | 8.42 | 8.54
Cc1ccc2nc(NC(=O)c3ccccn3)sc2c1 | 1.24 µM | 1.29 | 1.18 | 0.83 µM | 0.564 | 1.1
CC1CCCN(c2ncnc3c2cnn3-c2ccc(Cl)cc2)C1 (configuration not stated) | 7.2 µM | 6 | 8.4 | 1.98 µM | 1.79 | 2.17
COc1ccccc1CNCC(O)Cn1c2ccccc2c2ccccc21 (configuration not stated) | 8.9 µM | 10.1 | 7.69 | 16.2 µM | 16.7 | 15.7
COc1cccc(NC(=O)c2nc(S(C)(=O)=O)ncc2Cl)c1 | 7.74 µM | 8.84 | 6.64 | 9.29 µM | 10.2 | 8.36
Cc1ccc(C(=O)CN2C(=O)c3ccccc3S2(=O)=O)cc1 | 6.27 µM | 6.12 | 6.43 | 8.72 µM | 8.77 | 8.68
Cc1cc(C(=O)CN2C(=O)c3ccccc3S2(=O)=O)c(C)n1-c1ccccc1 | 3.36 µM | 2.98 | 3.75 | 7.33 µM | 6.79 | 7.88
CCOc1ccc2nc(NC(=O)c3ccccn3)sc2c1 | inactive | 4.39 | > 100 | 3.5 µM | 2.81 | 4.18
COc1ccc(CCN2C(=O)C=CC2=O)cc1OC | 8.69 µM | 10 | 7.39 | 7.92 µM | 6.39 | 9.45
CN(c1ccc2nc3ccccc3c(=O)n2n1)C1CCCCC1 | 3.97 µM | 3 | 4.94 | 0.772 µM | 0.789 | 0.755
O=C(CCl)Nc1ccccc1Sc1ccc(Cl)cc1 | 10.1 µM | 13 | 7.06 | 8.11 µM | 8.04 | 8.18
Cc1ccc(C(=O)O/N=C(\N)c2ccccn2)cc1 | 6.63 µM | 10.3 | 2.96 | 1.57 µM | 1.63 | 1.5
Clc1cccc(-c2nc(-c3ccccn3)no2)c1 | 4.8 µM | 3.68 | 5.92 | 2.23 µM | 1.82 | 2.63
Cc1ccccc1OCC(O)CNC1CCC(NCC(O)COc2ccccc2C)CC1 (configuration not stated) | 7.15 µM | 9.8 | 4.49 | 10.8 µM | 8.94 | 12.6

SMILES | IC50 (PEG-3 [1]) | IC50 (PEG-3 [2]; [3]) [µM] | IC50 (PEG-3 [2]; [4]) [µM] | IC50 (Rat fibroblasts (CREF); mean of runs) | IC50 (Rat fibroblasts (CREF); [3]) [µM] | IC50 (Rat fibroblasts (CREF); [4]) [µM]
CC(C)(C)C(=O)Nc1ccc(NC(=O)c2ccco2)nc1 | 2.58 µM | 4.91 | 0.246 | 0.435 µM | 0.224 | 0.646
O=C(c1ccc(Cl)cc1)N1CCCCC(Sc2nnc(-c3ccc4c(c3)OCO4)o2)C1=O (configuration not stated) | 2.29 µM | 0.669 | 3.91 | 2.25 µM | 3.87 | 0.643
NC(Cc1ccc(F)cc1)c1csc(Nc2cc(Oc3ccccc3)ncn2)n1 (configuration not stated) | 10.2 µM | 13.2 | 7.16 | 17.2 µM | 21.3 | 13.1
Cc1csc(NC(=O)c2ccc(N3CCCC3=O)cc2)n1 | 5.93 µM | 5.34 | 6.53 | 4.51 µM | 2.85 | 6.17
C[C@@H]1C[C@@H]([C@H](O)CC2CC(=O)NC(=O)C2)C(=O)[C@@H](C)C1 | 1.01 µM | 1.65 | 0.373 | 8.14 µM | 1.85 | 14.4
CCc1ccc(C(=O)Nc2nc3ccccc3[nH]2)cc1 | 2.59 µM | 2.24 | 2.95 | 0.476 µM | 0.298 | 0.654
O=c1c(Cl)c(N2CCCCC2)cnn1-c1nc2ccccc2[nH]1 | 3.25 µM | 3.02 | 3.49 | 0.714 µM | 0.81 | 0.618
CCN(CCCl)c1cc(CN(C)C)cc(NC(=O)c2ccc(C(=O)Nc3cc(CN(C)C)cc(N(CC)CCCl)c3)cc2)c1 | 1.12 µM | 1.6 | 0.642 | 7.53 µM | 14.3 | 0.8
Cc1cc(/C=N/Nc2ncnc(N)c2[N+](=O)[O-])c(C)n1-c1ccccc1 | 11 µM | 9.88 | 12 | 1.79 µM | 1.54 | 2.04
Cc1nc2cc(-c3ccccc3)sc2c(=O)n1N | 1.41 µM | 1.49 | 1.34 | 3.4 µM | 3.94 | 2.87
Cc1cnc(NC(=O)c2ccc3c(c2)OCCO3)s1 | inactive | 0.647 | > 100 | 0.454 µM | 0.378 | 0.53
CN(C)c1ccc(/C=C2\SC(=O)N(CCc3nnc(N)s3)C2=O)cc1 | 2.96 µM | 3.34 | 2.58 | 3.18 µM | 1.61 | 4.75
CCC(=O)NC(c1cccs1)c1cc(Cl)c2cccnc2c1O (configuration not stated) | 4.68 µM | 4.97 | 4.39 | 0.842 µM | < 100 | 0.842
Cc1ccc2nc(-c3ccc4c(c3)OCCO4)cn2c1 | 0.624 µM | 0.84 | 0.409 | 0.731 µM | 0.691 | 0.771
O=C(NC1=NCCS1)C1COc2ccccc2O1 (configuration not stated) | 1.88 µM | 1.36 | 2.39 | 15.1 µM | 14.5 | 15.7
CCOc1ccc(OCc2cccc(C(=O)O)c2)cc1 | 0.359 µM | 0.232 | 0.487 | 3.74 µM | 3.88 | 3.6
CC(=O)NC(c1ccc(N(C)C)cc1)c1cc(Cl)c2cccnc2c1O (configuration not stated) | 3.76 µM | 3.14 | 4.37 | 53.7 µM (inactive) | > 100 | 7.34
CCCSc1ccc2nc(-c3ccccc3)cn2c1 | 8.11 µM | 7.01 | 9.2 | 1.53 µM | 1.03 | 2.03
O=C(COc1ccc(Cl)cc1Cl)Nc1ccccn1 | 0.93 µM | 1.27 | 0.594 | 0.904 µM | 0.795 | 1.01
CC(=O)n1cc(N(C(=O)CCl)c2ccc(C)cc2)c2ccccc21 | 9.36 µM | 11.3 | 7.38 | 3.96 µM | 5.38 | 2.53
Cc1nn(-c2nc3ccccc3[nH]2)c(=O)c2ccccc12 | 0.491 µM | 0.51 | 0.471 | 0.331 µM | 0.351 | 0.311
Cc1ccccc1-c1nc(-c2ccccn2)no1 | 3.9 µM | 2.98 | 4.81 | 1.33 µM | 1.08 | 1.57
NC1=C(Br)C(=O)c2ncccc2C1=O | 3.1 µM | 3.31 | 2.9 | 2.2 µM | 2.19 | 2.2
